Assay results taken from patent US20190184069A1, “ANTIMICROBIAL COMPOSITIONS COMPRISING MINOCYCLINE AND DEGRADATION PRODUCTS OF OXIDIZED CELLULOSE” (Omrix Biopharmaceuticals Ltd., priority 2017, published 2019).
Entries after “also recorded” stand apart in the source; their conditions may differ.

What was measured:
S. aureus [1] = test: Primary stage MIC measurement of antibiotic alone (OD 600 nm growth curves, 18 h); format: cell-based, Staphylococcus aureus
Description: The following day, the turbidity of the actively-growing broth culture was adjusted with Calcium-adjusted Mueller Hinton broth II (MHBII) to be equivalent to that of a 0.5 McFarland standard (1×10^8 CFU/ml). The broth culture was maintained under ambient conditions prior to use.
The method used in this stage was based on the classic Minimum Inhibitory Concentration (MIC) measurements, as described by the Clinical and Laboratory Standards Institute (CLSI) document M07-A9: “Method for Dilution Antimicrobial Susceptibility Test for Bacteria that Grow Aerobically”. While classic MIC measurements require visual inspection of plates for bacterial growth after 18 hours, growth was monitored in the present study according to optical density (OD) at 600 nm, using an ELISA reader (MultiSkan™ FC ELISA reader, Thermo Fisher Scientific, Massachusetts, USA), thereby obtaining bacterial growth curves for tested antibiotic solutions.
Columns 1 and 3-12: 100 μl of MHBII alone was added to each well.
[…]: 200 μl of a solution of antibiotic in MHBII at the highest concentration to be tested was added to each well.
A series of 2-fold dilutions was performed, wherein 100 μl of solution of antibiotic was withdrawn from each well of column 2, transferred to the corresponding well of column 3, and mixed.
The dilution was then repeated by transfer from column 3 to column 4, and so on, until column 11, when the 100 μl of solution of antibiotic withdrawn from each well of column 11 was discarded.
(§1) The 5×10^6 CFU/ml stock suspension which had been prepared in advance was transferred into a reservoir and 10 μl of the stock suspension were added into each well of columns 2-11 using a multichannel pipette to obtain a final 5×10^5 CFU/ml suspension.
The plate was then incubated at 37° C. with shaking in the ELISA reader and the optical density at 600 nm was read every 20 minutes for a total of 18 hours.
The average OD reading obtained for each antibiotic concentration was calculated and plotted against time to obtain a growth curve.
The MIC was determined as the first antibiotic concentration at which […] by the end of the 18-hour period.

S. aureus [2] = test: Secondary stage: bacterial growth (ET50/MIC) of antibiotics with or without extract of degradation products of ORC; format: cell-based, Staphylococcus aureus
Description: ORC pads which had not been impregnated with antibiotic (referred to herein as “blank ORC pads”), were subjected to extraction and degradation in PBS for three hours at ambient temperature. Extract obtained from these blank ORC pads is referred to herein as “blank extract of degradation products of ORC”.
Blank ORC pads were subjected to extraction and degradation in a solution of antibiotic in PBS. Extracts of degradation products obtained from blank ORC pads in a solution of antibiotic in PBS is referred to herein as “extracts of degradation products of blank ORC in antibiotic”.
Due to the acidity of ORC, which provides some antibiotic effect, the size of the pad used was small i.e. approximately 1×1.5 inch, weighing between 65-75 mg (70 mg on average) in order to prevent the ORC from affecting the final pH of the assay and therefore the growth of the bacteria.
15 ml tubes, each containing 3 ml of an antibiotic solution at a known concentration in sterile PBS, were prepared in duplicate.
Blank ORC pads were subjected to extraction and degradation in the antibiotic solution by immersing the ORC pads in the antibiotic solution for 3-5 hours at ambient temperature on a roller mixer (Stuart, Cat#SRT9D).
Blank extract of degradation products of ORC and extract in antibiotic of degradation products of ORC, prepared as described above, were diluted 10 folds in MHBII in sterile 15 ml capped tubes.
as §1
Columns 3 to 6, rows B to F, were filled with the Blank ORC extracted in antibiotic at decreasing concentrations 1 to 5, diluted 10 folds in MHBII. Each sample tested was placed in 4 well repeats for statistical results.
Columns 7 to 10, rows B to F, were filled with the antibiotic solution (AB) at decreasing concentrations 1 to 5, diluted 10 folds in MHBII. Each sample tested was placed in 4 well repeats for statistical results.
Columns 3 to 6, row G, were filled with the blank extract of degradation products of ORC (PBS-ORC) diluted 10 folds in MHBII.
The plate was incubated at 37° C. with shaking in the ELISA reader and the optical density at 600 nm was read every 20 minutes for a total of 18 hours.
The average and standard deviation for OD readings was calculated for each time point of the wells using Excel. The average values were plotted against time to obtain a graph of the bacterial growth curves in the presence of each of the antibiotics tested.
In some cases, the average OD was plotted for a single endpoint of 800 minutes for the various antibiotic treatments and controls.
The average values were also entered into the GraphPad Prism program (GraphPad Software Inc., CA, USA) in order to calculate the Effective Time 50 (ET50) i.e. the time, in minutes, required for the antibiotic to induce a response halfway between the baseline and maximum, where the maximum is the bacterial growth in MHBII with PBS. This provides a quantifiable measure of the efficacy of the antibiotics tested and enables comparison of the various samples tested.

In the case of `CN(C)c1ccc(O)c2c1C[C@H]1C[C@H]3[C@H](N(C)C)C(O)=C(C(N)=O)C(=O)[C@@]3(O)C(O)=C1C2=O` [Minocycline, minocycline], the “MIC as single antibiotics in the absence of ORC (first stage MIC results)” value (S. aureus [1]) was 0.25 µg/mL, the ET50 (S. aureus [2]; minocycline 0.05 μg/ml, +ORC degradation products) was 901.1 min and the ET50 (S. aureus [2]; minocycline 0.05 μg/ml, +ORC degradation products, listed as minocycline) was 901 min. For the same molecule, the ET50 (S. aureus [2]; minocycline 0.05 μg/ml, −ORC) was 428.1 min, the ET50 (S. aureus [2]; minocycline 0.1 μg/ml, +ORC degradation products) was >2000 min and the ET50 (S. aureus [2]; minocycline 0.1 μg/ml, +ORC degradation products, listed as minocycline) was “over 2000 minutes”. For the same molecule, the ET50 (S. aureus [2]; minocycline 0.1 μg/ml, −ORC) was 555.1 min, the ET50 (S. aureus [2]; minocycline 0.1 μg/ml, −ORC, listed as minocycline) was 555 min and the ET50 (S. aureus [2]; minocycline 0.2 μg/ml, +ORC degradation products) was >2000 min. The ET50 (S. aureus [2]; minocycline 0.2 μg/ml, +ORC degradation products, listed as minocycline) was “over 2000 minutes”, the ET50 (S. aureus [2]; minocycline 0.2 μg/ml, −ORC) was 1771 min and the ET50 (S. aureus [2]; minocycline 0.4 μg/ml, +ORC degradation products) was >2000 min. For the same molecule, the ET50 (S. aureus [2]; minocycline 0.4 μg/ml, −ORC) was >2000 min, the ET50 (S. aureus [2]; minocycline 0.4 μg/ml, −ORC, listed as minocycline) was “above 2000 minutes” and the ET50 (S. aureus [2]; minocycline 0.5 μg/ml, +ORC degradation products) was >2000 min. The ET50 (S. aureus [2]; minocycline 0.5 μg/ml, −ORC) was >2000 min.
In the case of `CO[C@H]1/C=C/O[C@@]2(C)Oc3c(C)c(O)c4c(O)c(c(/C=N/N5CCN(C)CC5)c(O)c4c3C2=O)NC(=O)/C(C)=C\C=C\[C@H](C)[C@H](O)[C@@H](C)[C@@H](O)[C@@H](C)[C@H](OC(C)=O)[C@@H]1C` [Rifampin, rifampin], the “MIC as single antibiotics in the absence of ORC (first stage MIC results)” value (S. aureus [1]) was 0.015 µg/mL, the “Effect of addition of degradation products of ORC on the antibiotic activity” value (S. aureus [2]; antibiotic with versus without ORC degradation products) was “reduction in the antibiotic activity; also recorded: interfere with the antibiotic activity; also recorded: lowering of the antibiotic activity; also recorded: impaired” and the ET50 (S. aureus [2]; rifampin 0.015 μg/ml, +ORC degradation products) was 440.5 min. For the same molecule, the ET50 (S. aureus [2]; rifampin 0.015 μg/ml, −ORC) was 470.7 min, the ET50 (S. aureus [2]; rifampin 0.031 μg/ml, +ORC degradation products) was 436.3 min and the ET50 (S. aureus [2]; rifampin 0.031 μg/ml, −ORC) was 448.4 min. It also gave an ET50 (S. aureus [2]; rifampin 0.062 μg/ml, +ORC degradation products) of 432.8 min, an ET50 (S. aureus [2]; rifampin 0.062 μg/ml, +ORC degradation products, listed as rifampin) of 430 min and an ET50 (S. aureus [2]; rifampin 0.062 μg/ml, −ORC) of 669.1 min. The ET50 (S. aureus [2]; rifampin 0.125 μg/ml, +ORC degradation products) was 432.3 min, the ET50 (S. aureus [2]; rifampin 0.125 μg/ml, +ORC degradation products, listed as rifampin) was “around 430 minutes” and the ET50 (S. aureus [2]; rifampin 0.125 μg/ml, −ORC) was “no growth at all”. For the same molecule, the ET50 (S. aureus [2]; rifampin 0.25 μg/ml, +ORC degradation products) was 430.8 min, the ET50 (S. aureus [2]; rifampin 0.25 μg/ml, +ORC degradation products, listed as rifampin) was “around 430 minutes” and the ET50 (S. aureus [2]; rifampin 0.25 μg/ml, −ORC) was “no growth at all”.
